Assay results reported in patent publication US20260174910A1, “POROUS EXPANDING BIOCOMPATIBLE SCAFFOLDS” (DANMARKS TEKNISKE UNIVERSITET, priority 2022, published 2026).

Columns and labels:
[1] = Lipids/surfactants in ECell: solubility and expansion in PBS (images); format: physicochemical; details: for appearance of ECell compositions containing the lipid/surfactant: 1% w/w (RGD lipids 0.1%), with and without 2.5% CAB polymer; for ECell expansion compared to the reference: LOIB:CAB:DMSO:Surfactant 66.5:2.5:30:1, PBS, reference LOIB:CAB:DMSO 67.5:2.5:30; for ECell expansion compared to the reference / shape of the depot compared to reference: 37° C.; for shape of the depot compared to reference: ECells without CAB, LOIB:GTH:DMSO:Surfactant 69:10:20:1, PBS
Method: Different surfactants were formulated in expandable (w CAB, Mn 12000) vs non-expandable (w GTH) ECell formulations in a concentration of 1% w/w. […] Gel formulations containing each surfactant were prepared in 600 mg aliquots.
Duplicates consisting of 100 μL gel depots of each ECell formulation were injected into 2 mL PBS buffer. Samples were incubated at 37° C., and images of a non-expandable vs an expandable ECell containing the same surfactant side-by-side were taken at 1.5 h and 2 days and 7 days post injection to investigate and document surfactant effects on ECell expansion.

[2] = cited from earlier work
[3] = Solvent type and ECell expansion in PBS (visual inspection of images); format: physicochemical; details: LOIB:CAB (Mn 12000):Solvent 67.5:2.5:30, 100 μL in 2 mL PBS, 37° C., 1.5 h, 2 days, 7 days pi
Method: These ECells were prepared to study eventual surface and expansion effects of the specific solvent type on LOIB:CAB compositions. ECell formulations were prepared in 900 mg aliquots. 12 h stability at room temperature (RT) was investigated and documented in images. Only soluble formulations of appropriate viscosity were injected as gel depots into PBS (100 μL, for visual inspection). Duplicates consisting of 100 μL ECell depots of each clear formulation were injected into 2 mL PBS buffer for inspection. Samples were kept at 37° C., and images of each injected gel depot composition were recorded at 1.5 h and 2 days and 7 days post injection (pi) to investigate and document effects of solvent type on the depots.

[4] = In vitro release of antimicrobials from expanding ECells (RHPLC); format: physicochemical; details: dPBS, 37° C., FIG. 18
Method: Each formulation was loaded with antimicrobial in varying concentrations (see Table 1) and was injected as ≈100 μl into 4 ml Dulbecco's Phosphate-buffered Saline (dPBS), in a glass vial, and incubated at 37° C. in atmospheric air, only taken out when samples were collected and new dPBS was added. Sample collection proceeded by removing all dPBS possible with a pipette, weighing the expanding ECells, then saving 1 ml for analysis, returning the rest, and adding new dPBS until 4,000 mg of water was present.
At each chosen time point, 1 ml of the release medium was collected and RHPLC analysis was carried out. […] Solution A was an aqueous mixture of 5% v/v MeCN and 0.01% TFA. […] Rifamycin splits into several peaks over time, and the total AUC of all peaks were used for quantification and standard curve generation.

[5] = In vitro release of MMP / gp-130 inhibitors from expanding ECells (RHPLC); format: physicochemical; details: 5 mg/g in LOIB:CAB(12 kDa):DMSO (65:5:30), dPBS, 37° C.
Method: The in vitro release profile of three inhibitor compounds were elucidated from a LOIB:CAB(12 kDa):DMSO (65:5:30) formulation. […] Loading of inhibitors were done by adding the desired concentration in mg per g of expanding ECells and stirring on a magnetic stirrer at room temperature until the solution became clear.
Each compound was loaded as 5 mg/g in the expanding ECell formulation and injected in 4 ml Dulbecco's Phosphate-buffered Saline (dPBS) as ≈100 μl, in triplicates, and incubated at 37° C. At chosen time points (see FIG. 19a), all dPBS was removed by pipetting, the expanding ECells+potentially absorbed water was weighed, and its weight noted down, 1 ml dPBS was collected for release quantification, and the remaining dPBS+fresh dPBS to a total of 4 ml (4 g) was added.
Weight data was used to generate a graph of the relative expanding ratio as a function of time (FIG. 19b), and from the 1 ml collected, RHPLC analysis was carried out. […] Solution A was an aqueous mixture of 5% v/v MeCN and 0.01% TFA.

[6] = Method: After addition of LOIB and DMSO, each ECell formulation was sonicated at 75° C. for 2 hrs and vortexed every 30th minute.

Compound | appearance of ECell compositions containing the lipid/surfactant [1] | ECell expansion compared to the reference [1] | expansion of the ECell by solvent, as judged by the eye [3] | other results
1,2-Dimyristoyl-rac-glycero-3-methoxypolyethylene glycol-2000 [DMG-PEG2K] | Homogeneous | slightly reduced |  | 
CNC(=O)[C@H](Cc1ccccc1)NC(=O)[C@H](CC(C)C)[C@H](CSc1cccs1)C(=O)NO [Batimastat] |  |  |  | log P [2]: 3.27
OCc1ccccc1 [BnOH, Benzyl alcohol] |  |  | did not expand | 
CCCCOC(C)=O [BuAc, Butyl acetate] |  |  | did not expand | 
CC(C)CCC[C@@H](C)[C@H]1CC[C@H]2[C@@H]3CC=C4C[C@@H](OC(=O)CCC(=O)O)CC[C@]4(C)[C@H]3CC[C@]12C [CHEMS, cholesteryl hemisuccinate] | Homogeneous | relatively similar to the reference |  | shape of the depot compared to reference [1]: slight flattening of the depot compared to reference
CN(C)C=O [DMF, Dimethyl formamide] |  |  | cause expansion of the ECell | 
C[S+](C)[O-] [DMSO, Dimethyl sulphoxide] |  |  | cause expansion of the ECell | 
CCO [EtOH, Ethanol] |  |  | did not expand | 
CCCCCCCCCCCC(=O)O [Lauric acid] | Homogeneous | relatively similar to the reference |  | 
CCCCCCCCCCCC(=O)OCC(O)CO (stereo not shown) [Monolaurin] | Homogeneous | relatively similar to the reference |  | 
CN1CCCC1=O [NMP, N-methyl pyrrolidone] |  |  | cause expansion of the ECell | 
CCCCCCCC/C=C\CCCCCCCC(=O)O [Oleic acid] |  | slightly reduced |  | 
CC1COC(=O)O1 (stereo not shown) [PC, Propylene carbonate] |  |  | did not expand | 
CO[C@H]1/C=C/O[C@@]2(C)Oc3c(C)c(O)c4c(O)c(cc(O)c4c3C2=O)NC(=O)/C(C)=C\C=C\[C@H](C)[C@H](O)[C@@H](C)[C@@H](O)[C@@H](C)[C@H](OC(C)=O)[C@@H]1C [Rifamycin SV] |  |  |  | log P [2]: 4.17; in vitro release rate (comparison in words) [4]: relatively slower release rate
O=S(=O)(CC1CS1)c1ccc(Oc2ccccc2)cc1 (stereo not shown) [SB-3CT] |  |  |  | log P [2]: 2.75; cargo released in vitro after 42 days [5]: about 5%
Cellulose Acetate [Cellulose Acetate (Mn=30,000)] |  |  |  | solubility in LOIB:DMSO ECell [6]: insoluble
LMT-28 |  |  |  | log P [2]: 3.71; cargo released in vitro after 42 days [5]: 10%
PEG(10)-monolaurate | Homogeneous | slightly reduced |  | 
PEG(20)-monooleyl ether | Homogeneous |  |  | 
Tween 80 | Homogeneous | slightly reduced |  | shape of the depot compared to reference [1]: slight flattening of the depot compared to reference
